Reference: paper PMC6812009, “Covalent Aurora A regulation by the metabolic integrator coenzyme A” (Redox Biology, 2019)

Columns and labels:
Assay in all cases: Kinase profiling screen (radioactive filter-binding assay)
Type in all cases: biochemical
[1] = molecular target: T1, IKKβ (Homo sapiens, UniProt O14920); details: 100 μM compound, 5 μM ATP; read-out: Kinase activity, % of activity in the absence of inhibitor
T1 sequence (O14920 1-756): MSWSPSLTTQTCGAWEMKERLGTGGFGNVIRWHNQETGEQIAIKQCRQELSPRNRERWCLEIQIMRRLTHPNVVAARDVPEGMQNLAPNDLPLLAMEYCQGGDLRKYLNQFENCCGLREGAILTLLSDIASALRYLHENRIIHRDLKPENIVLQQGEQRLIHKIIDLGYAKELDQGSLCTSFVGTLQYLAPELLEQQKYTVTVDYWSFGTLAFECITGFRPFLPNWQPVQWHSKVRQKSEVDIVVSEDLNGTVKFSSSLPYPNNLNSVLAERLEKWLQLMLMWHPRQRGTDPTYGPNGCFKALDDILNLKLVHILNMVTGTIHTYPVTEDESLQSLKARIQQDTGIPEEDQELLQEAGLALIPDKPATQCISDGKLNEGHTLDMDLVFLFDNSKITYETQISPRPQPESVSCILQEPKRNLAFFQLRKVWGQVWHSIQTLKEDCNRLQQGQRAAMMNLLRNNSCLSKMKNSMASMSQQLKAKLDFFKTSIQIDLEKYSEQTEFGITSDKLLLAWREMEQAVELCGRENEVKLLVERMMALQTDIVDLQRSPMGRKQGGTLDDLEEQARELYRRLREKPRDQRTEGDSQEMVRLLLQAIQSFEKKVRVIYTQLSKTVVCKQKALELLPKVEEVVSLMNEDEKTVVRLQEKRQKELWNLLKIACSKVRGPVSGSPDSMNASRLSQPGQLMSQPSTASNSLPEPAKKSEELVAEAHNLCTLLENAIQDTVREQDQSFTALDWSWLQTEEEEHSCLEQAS
How it was run: (§1)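 Single-point in vitro screen: 100 μM final of CoA, dpCoA and ADP, run in duplicate against recombinant kinase with a model substrate and optimal ATP.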

[2] = molecular target: Lck (Homo sapiens, UniProt P06239); details: 100 μM compound, 50 μM ATP; read-out: Kinase activity, % of activity in the absence of inhibitor
Lck, sequence (P06239 whole entry): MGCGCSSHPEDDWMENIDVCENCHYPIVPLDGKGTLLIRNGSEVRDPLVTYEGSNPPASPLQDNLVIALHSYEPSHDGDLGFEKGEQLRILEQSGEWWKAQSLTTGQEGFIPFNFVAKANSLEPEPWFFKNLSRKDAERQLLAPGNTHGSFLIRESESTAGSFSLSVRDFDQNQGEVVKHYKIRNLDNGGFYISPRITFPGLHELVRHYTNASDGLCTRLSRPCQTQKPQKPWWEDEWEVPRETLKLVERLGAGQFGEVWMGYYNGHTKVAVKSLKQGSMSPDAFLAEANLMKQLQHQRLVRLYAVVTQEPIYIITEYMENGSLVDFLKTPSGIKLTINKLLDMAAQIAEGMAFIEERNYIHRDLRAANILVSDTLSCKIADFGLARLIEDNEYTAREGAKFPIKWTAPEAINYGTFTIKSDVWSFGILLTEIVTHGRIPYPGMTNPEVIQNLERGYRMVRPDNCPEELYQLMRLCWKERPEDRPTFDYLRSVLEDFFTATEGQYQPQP
How it was run: as §1

[3] = molecular target: MLK1 (Homo sapiens, UniProt P80192); details: 100 μM compound, 20 μM ATP; read-out: Kinase activity, % of activity in the absence of inhibitor
MLK1, sequence (P80192 whole entry): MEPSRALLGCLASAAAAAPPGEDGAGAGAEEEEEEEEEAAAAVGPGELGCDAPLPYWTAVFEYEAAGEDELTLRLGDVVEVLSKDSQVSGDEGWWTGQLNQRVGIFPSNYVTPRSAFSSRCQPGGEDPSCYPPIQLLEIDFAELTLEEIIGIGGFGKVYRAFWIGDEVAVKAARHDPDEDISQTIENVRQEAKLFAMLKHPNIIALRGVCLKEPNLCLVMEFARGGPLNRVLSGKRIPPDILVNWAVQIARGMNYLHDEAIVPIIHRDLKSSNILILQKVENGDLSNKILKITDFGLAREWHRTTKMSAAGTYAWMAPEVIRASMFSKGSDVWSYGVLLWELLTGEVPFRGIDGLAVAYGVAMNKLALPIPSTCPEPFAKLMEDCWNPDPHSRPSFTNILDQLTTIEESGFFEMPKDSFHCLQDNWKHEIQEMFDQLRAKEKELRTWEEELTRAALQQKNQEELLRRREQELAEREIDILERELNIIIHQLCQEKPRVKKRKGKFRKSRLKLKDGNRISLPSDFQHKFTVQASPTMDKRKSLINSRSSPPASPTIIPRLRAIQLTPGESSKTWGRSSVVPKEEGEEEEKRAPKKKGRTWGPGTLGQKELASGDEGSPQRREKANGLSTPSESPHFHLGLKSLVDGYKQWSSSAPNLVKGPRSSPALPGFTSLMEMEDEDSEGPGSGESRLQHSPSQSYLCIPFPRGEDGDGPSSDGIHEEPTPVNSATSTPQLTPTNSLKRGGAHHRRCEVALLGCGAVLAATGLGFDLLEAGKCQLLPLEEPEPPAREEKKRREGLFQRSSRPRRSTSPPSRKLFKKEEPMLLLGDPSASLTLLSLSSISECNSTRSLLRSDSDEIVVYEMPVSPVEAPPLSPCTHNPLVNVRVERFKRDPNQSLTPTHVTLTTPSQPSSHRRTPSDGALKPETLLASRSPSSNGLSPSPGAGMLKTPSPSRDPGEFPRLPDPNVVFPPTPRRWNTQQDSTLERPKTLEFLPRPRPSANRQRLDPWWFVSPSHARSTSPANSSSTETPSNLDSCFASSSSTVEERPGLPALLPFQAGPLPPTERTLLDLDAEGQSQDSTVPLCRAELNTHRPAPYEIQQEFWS
How it was run: as §1

[4] = molecular target: T2, NUAK1 (Homo sapiens, UniProt O60285); details: 100 μM compound, 20 μM ATP; read-out: Kinase activity, % of activity in the absence of inhibitor
T2 sequence (O60285 1-661): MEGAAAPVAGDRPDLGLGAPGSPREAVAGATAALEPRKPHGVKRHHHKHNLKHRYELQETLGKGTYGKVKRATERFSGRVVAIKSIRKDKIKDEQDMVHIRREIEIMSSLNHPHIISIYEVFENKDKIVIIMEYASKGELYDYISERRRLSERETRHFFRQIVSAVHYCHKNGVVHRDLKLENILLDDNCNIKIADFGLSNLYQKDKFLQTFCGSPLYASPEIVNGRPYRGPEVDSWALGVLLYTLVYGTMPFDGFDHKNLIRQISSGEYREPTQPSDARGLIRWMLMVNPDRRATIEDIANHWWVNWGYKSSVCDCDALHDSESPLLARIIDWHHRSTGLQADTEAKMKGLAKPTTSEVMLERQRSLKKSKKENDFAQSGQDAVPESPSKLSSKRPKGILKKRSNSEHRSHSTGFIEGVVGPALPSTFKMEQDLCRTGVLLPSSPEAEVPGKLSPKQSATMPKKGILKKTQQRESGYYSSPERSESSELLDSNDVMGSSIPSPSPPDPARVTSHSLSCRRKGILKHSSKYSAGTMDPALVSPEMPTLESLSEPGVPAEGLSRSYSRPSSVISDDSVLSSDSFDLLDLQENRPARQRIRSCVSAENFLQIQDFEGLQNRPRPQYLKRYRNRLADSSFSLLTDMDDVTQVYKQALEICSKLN
How it was run: as §1

[5] = molecular target: PAK6 (Homo sapiens, UniProt Q9NQU5); details: 100 μM compound, 20 μM ATP; read-out: Kinase activity, % of activity in the absence of inhibitor
PAK6, sequence (Q9NQU5 whole entry): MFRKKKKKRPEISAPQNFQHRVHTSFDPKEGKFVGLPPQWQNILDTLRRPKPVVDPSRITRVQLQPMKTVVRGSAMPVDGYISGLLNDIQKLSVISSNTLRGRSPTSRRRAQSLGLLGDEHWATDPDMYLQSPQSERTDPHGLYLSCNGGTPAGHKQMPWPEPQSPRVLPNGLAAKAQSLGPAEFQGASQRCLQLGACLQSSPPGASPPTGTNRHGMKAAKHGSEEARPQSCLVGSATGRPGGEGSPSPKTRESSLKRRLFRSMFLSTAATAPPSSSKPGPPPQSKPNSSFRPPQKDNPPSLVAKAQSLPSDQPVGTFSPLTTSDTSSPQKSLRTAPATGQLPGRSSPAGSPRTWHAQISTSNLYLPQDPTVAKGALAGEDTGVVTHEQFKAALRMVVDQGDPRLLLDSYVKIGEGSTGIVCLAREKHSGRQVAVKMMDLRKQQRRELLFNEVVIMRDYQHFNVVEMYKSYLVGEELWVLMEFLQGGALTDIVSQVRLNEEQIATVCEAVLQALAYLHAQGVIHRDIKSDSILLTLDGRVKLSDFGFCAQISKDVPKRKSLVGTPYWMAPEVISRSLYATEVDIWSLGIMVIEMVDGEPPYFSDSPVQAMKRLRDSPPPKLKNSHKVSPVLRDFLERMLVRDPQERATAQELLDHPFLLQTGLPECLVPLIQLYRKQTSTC
How it was run: as §1

[6] = molecular target: PKA (Homo sapiens, UniProt P17612); details: for activity at 100 µM: 100 μM compound, 20 μM ATP, read-out: Kinase activity, % of activity in the absence of inhibitor
How it was run: as §1

[7] = molecular target: T3, p38γ MAPK (Homo sapiens, UniProt P53778); details: 100 μM compound, 5 μM ATP; read-out: Kinase activity, % of activity in the absence of inhibitor
T3 sequence (P53778 1-367): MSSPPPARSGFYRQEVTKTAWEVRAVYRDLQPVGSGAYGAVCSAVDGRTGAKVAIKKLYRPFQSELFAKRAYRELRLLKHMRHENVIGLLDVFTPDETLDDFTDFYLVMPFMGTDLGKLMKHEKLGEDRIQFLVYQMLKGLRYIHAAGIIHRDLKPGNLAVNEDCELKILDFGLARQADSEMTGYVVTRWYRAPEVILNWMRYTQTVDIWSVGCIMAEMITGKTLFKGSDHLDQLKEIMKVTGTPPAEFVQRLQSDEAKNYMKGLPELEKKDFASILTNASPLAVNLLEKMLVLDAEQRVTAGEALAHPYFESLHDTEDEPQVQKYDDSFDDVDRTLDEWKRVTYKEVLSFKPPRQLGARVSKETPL
How it was run: as §1

**Q.** Which activity at 100 µM [1] does the source give for Nc1ncnc2c1ncn2C1OC(COP(=O)(O)OP(=O)(O)O)C(O)C1O (stereo not shown) [ADP] here?
**A.** 26.6%

**Q.** And the activity at 100 µM [2]?
**A.** 35.1%

**Q.** What about the activity at 100 µM [3] of the same compound?
**A.** 41.4%

**Q.** And the activity at 100 µM [4]?
**A.** 32.4%

**Q.** And the activity at 100 µM [5]?
**A.** 78.4%

**Q.** And the activity at 100 µM [6]?
**A.** 27.8%

**Q.** What about the activity at 100 µM [7] of the same compound?
**A.** 26%

**Q.** What does the source list for CC(C)(COP(=O)(O)OP(=O)(O)OC[C@H]1O[C@@H](n2cnc3c(N)ncnc32)[C@H](O)[C@@H]1OP(=O)(O)O)[C@@H](O)C(=O)NCCC(=O)NCCS [CoA, Coenzyme A]?
**A.** activity at 100 µM [1]: 90.5%; activity at 100 µM [2]: 100%; activity at 100 µM [3]: 110%; activity at 100 µM [4]: 98.3%; activity at 100 µM [5]: 98.4%; activity at 100 µM [6]: 98.9%; PKA inhibition in vitro ([6]; kinase profiling, 100 μM): not detected; activity at 100 µM [7]: 127%

**Q.** With CC(C)(COP(=O)(O)OP(=O)(O)OCC1OC(n2cnc3c(N)ncnc32)C(O)C1O)C(O)C(=O)NCCC(=O)NCCS (stereo not shown) [dpCoA, dephospho-CoA] as the compound, how does the activity at 100 µM [1] read?
**A.** 48%

**Q.** And the activity at 100 µM [2]?
**A.** 69%

**Q.** And the activity at 100 µM [3]?
**A.** 76%

**Q.** And the activity at 100 µM [4]?
**A.** 68.3%

**Q.** And the activity at 100 µM [5]?
**A.** 101%

**Q.** What about the activity at 100 µM [6] of the same compound?
**A.** 81.3%

**Q.** What about the activity at 100 µM [7] of the same compound?
**A.** 65.9%
